In data set [1] the test system is human cervical cancer cells (HeLa). Briefly: In vitro anticancer activity (MTT) of [Re(CO)3(N—N)(H2O)][OTf] complexes in HeLa cells. Type of data set: cell-based. The settings on record: concentration at which cell proliferation is inhibited by 50%, read-out: IC50 of Re—(H2O) Complex. The procedure: (§1) HeLa (cervical cancer) cell line was cultured using Dulbecco's Modified Eagle's Medium (DMEM) supplemented with 10% fetal bovine serum (FBS). A2780 (ovarian cancer) and A2780CP70 (cisplatin-resistant ovarian cancer) cell lines were cultured as monolayers with Roswell Park Memorial Institute (RPMI)-1640 culture media supplemented with 10% fetal bovine serum. All cell lines were grown in a humidified incubator at 37° C. with an atmosphere of 5% CO2. Cells were passed at 80-90% confluence, using trypsin/EDTA. Cells were tested monthly for mycoplasma contamination with the PlasmoTest™ mycoplasma detection kit from InvivoGen.
(§2) All compounds were dissolved in phosphate-buffered saline (PBS, pH 7.4) to prepare a 1-2 mM stock solution. For single dose studies, only HeLa cells were used. For both the single dose and full dose response, all cells were grown to 80-90% confluence, detached with trypsin/EDTA, seeded in 96-well plates at 2000 cells/well for HeLa cells and 4000 cells/well for A2780 and A2780CP70 cells in 100 μL of growth media, and incubated for 24 hours. The medium was removed and replaced with fresh medium (200 μL) containing a single concentration of a rhenium(I) complex or media. The cells were then incubated for 4 hours, and then the cells were dosed with 365 nm for 1 hour (one plate under the same dosing conditions was kept outside the incubator in the dark as a control). After exposure to light, the plates incubated for an additional 44 hours, the medium was removed from the wells, and (3(4,5-dimethylthiazol-2-yl)-2,5-tetrazolium bromide (MTT) in RPMI (200 μL, 1 mg/mL) was added. After 4 hours, the MTT/RPMI solution was removed, and the formazan crystals were dissolved in 200 μL of an 8:1 mixture of DMSO and pH 10 glycine buffer. The absorbance at 570 nm in each well was measured using a BioTek Synergy™ HT plate reader. Cell viability was determined by normalizing the absorbance of the treated wells to untreated wells. All compounds that had less than 50% cell viability were analyzed using a full dose response. The % viability data is an average of three independent experiments with six replicates per concentration. The same procedure was followed as above for the full dose response but instead, after 24 hours, varying concentrations of the desired compounds were added. Cell viability was again determined by normalizing the absorbance of the treated wells to untreated wells The concentration of the compound versus % viability was plotted to produce dose-response curves, which were analyzed using a logistic sigmoid function fit with MagicPlot Pro™ software. The reported IC50 values are the average of three independent experiments with six replicates per concentration level.
The in vitro anticancer activities of these complexes were tested in human cervical cancer cells (HeLa), and the results are provided below in Table 1. […] The Hill-Slope is a quantitative measure of the steepness of the dose-response curve.

For data set [2], the system named is wild-type (KB) cancer cells. Briefly: Cytotoxicity in wild-type KB cancer cells. Type of data set: cell-based. The protocol: (§3) The Re complex containing the 2,9-dimethyl phen ligand was also tested in wild-type (KB) and cisplatin-resistant (KBCP20) cancer cells.
In data set [3] the test system is cisplatin-resistant (KBCP20) cancer cells. Description: Cytotoxicity in cisplatin-resistant KBCP20 cancer cells. The data set is classed as cell-based. The settings on record: for IC50: cisplatin-resistant cells, read-out: IC50 KBCBP20; for RF (resistance factor): ratio of IC50 values in cisplatin-resistant versus wild-type cell lines. The procedure: as §3
In data set [4] the test system is HeLa (cervical cancer) cell line. Description: MTT cell viability of phosphino-Re(I) complexes in HeLa cells, dark or 365 nm light. The settings on record: for Single Dose Cell Viability (%) Light / Single Dose Cell Viability (%) Dark: HeLa cells, single concentration; for Single Dose Cell Viability (%) Dark: kept in the dark. Type of data set: cell-based, human. The protocol: as §1, §2

For data set [5], the system named is A2780 (ovarian cancer) cell line. Briefly: MTT cell viability of phosphino-Re(I) complexes in A2780 cells, dark or 365 nm light. Type of data set: cell-based. The procedure: as §1, §2
In data set [6] the test system is A2780CP70 (cisplatin-resistant ovarian cancer) cell line. Briefly: MTT cell viability of phosphino-Re(I) complexes in A2780CP70 cells, dark or 365 nm light. The data set is classed as cell-based. The protocol:
as §1, §2

Setting [7] is: Table 4, HeLa, 365 nm for 1 hour, read-out: IC50 Value (μM) HeLa (light).
[8] abbreviates: Table 4, HeLa, dark, read-out: IC50 Value (μM) HeLa (dark).
Where [9] appears, read: Table 3, full dose response, 365 nm for 1 hour, read-out: IC50 Value (μM) Light.
[10] abbreviates: Table 3, full dose response, dark, read-out: IC50 Value (μM) Dark.
Setting [11] is: A2780, 365 nm for 1 hour, read-out: IC50 Value (μM) A2780 (light).
The mark [12] stands for this setting: A2780, dark, read-out: IC50 Value (μM) A2780 (dark).
Setting [13] is: A2780CP70, 365 nm for 1 hour, read-out: IC50 Value (μM) A2780CP70 (light).
[14] abbreviates: A2780CP70, dark, read-out: IC50 Value (μM) A2780CP70 (dark).

Where two headings read alike, the source gives them in different places.

By IC50 is commonly meant the concentration needed to halve the response being measured.

Take `Cc1ccc2ccc3ccc(C)nc3c2n1.O.O=S(=O)([O-])C(F)(F)F.[C-]#[O+].[C-]#[O+].[C-]#[O+].[Re+]` [2,9-dimethyl phen, [Re(CO)3(N—N)(H2O)][OTf]]: the IC50 in data set [1] is 0.97 ± 0.21 µM; in data set [2], 0.4 µM; in data set [3] it was 2 µM. The “RF (resistance factor)” value in data set [3] came out at 5.
For `N.N.[Cl][Pt][Cl]` [cisplatin, reference compound], the IC50 in data set [1] was 3 ± 1.2 µM; in data set [2] it was 0.8 µM; in data set [3] it was 50 µM. For the same compound, in data set [3], the “RF (resistance factor)” value amounted to 62.5.
For the compound “Re(CO)2(phen)(DAPTA)(H2O) [DAPTA-phen dicarb (3b)]”, the half-inhibitory concentration (IC50) in data set [4] (setting [7]) and in data set [4] (setting [8]) was above 200 µM throughout.
For the compound Re(CO)3(bpy)(DAPTA) [DAPTA-bpy (9)], the IC50 in data set [4] (setting [9]) was 14.9 ± 3.2 µM; in data set [4] (setting [10]), above 200 µM.
With Re(CO)3(bpy)(PTA) [PTA-bpy (7)], the “Single Dose Cell Viability (%) Light” value in data set [4] (365 nm for 1 hour) worked out at 90.5 ± 4.1%. For the same compound, the “Single Dose Cell Viability (%) Dark” value in data set [4] came to 97.9 ± 3.7%.
Take Re(CO)3(bpy)(THP) [THP-bpy (8)]: in data set [4] (365 nm for 1 hour), the “Single Dose Cell Viability (%) Light” value came to 73.1 ± 6.4%. Besides, in data set [4], the “Single Dose Cell Viability (%) Dark” value amounted to 98.9 ± 1.6%.
Regarding “Re(CO)3(dmbpy)(DAPTA) [DAPTA-dmbpy (12)]”, the IC50 in data set [4] (setting [9]) is 60.3 ± 18.2 µM; in data set [4] (setting [10]) it was above 200 µM.
Regarding Re(CO)3(dmbpy)(PTA) [PTA-dmbpy (10)], the “Single Dose Cell Viability (%) Light” value in data set [4] (365 nm for 1 hour) came to 82.5 ± 9.7%. Also, in data set [4], the “Single Dose Cell Viability (%) Dark” value turned out to be 94.4 ± 4.9%.
For Re(CO)3(dmbpy)(THP) [THP-dmbpy (11)], in that order: 30.7 ± 14.6% and 93.3 ± 6.0%.
For the compound “Re(CO)3(dmobpy)(DAPTA) [DAPTA-dmobpy (15)]”, the IC50 in data set [4] (setting [9]) was 26.4 ± 9.2 µM; in data set [4] (setting [10]), above 200 µM.
For the compound Re(CO)3(dmobpy)(PTA) [PTA-dmobpy (13)], the “Single Dose Cell Viability (%) Light” value in data set [4] (365 nm for 1 hour) is listed as 96.0 ± 6.8%. The “Single Dose Cell Viability (%) Dark” value in data set [4] is recorded as 98.2 ± 3.2%.
In the case of Re(CO)3(dmobpy)(THP) [THP-dmobpy (14)], the “Single Dose Cell Viability (%) Light” value in data set [4] (365 nm for 1 hour) is 12.7 ± 5.8%. Moreover, the “Single Dose Cell Viability (%) Dark” value in data set [4] was 57.5 ± 11.0%. Moreover, the IC50 in data set [4] (setting [9]) came to 68 ± 4.3 µM; in data set [4] (setting [10]), 72.6 µM.
As to “Re(CO)3(dmphen)(DAPTA) [DAPTA-dmphen (6)]”, the concentration for half-maximal inhibition (IC50) in data set [4] (setting [9]) is 19.2 ± 2.9 µM; in data set [4] (setting [10]) it was above 200 µM.
With Re(CO)3(dmphen)(PTA) [PTA-dmphen (4)], the “Single Dose Cell Viability (%) Light” value in data set [4] (365 nm for 1 hour) was determined as 87.0 ± 8.0%. Further, the “Single Dose Cell Viability (%) Dark” value in data set [4] was 90.0 ± 8.8%.
In the case of Re(CO)3(dmphen)(THP) [THP-dmphen (5)], the “Single Dose Cell Viability (%) Light” value in data set [4] (365 nm for 1 hour) is recorded as 1.3 ± 1.1%. In addition, the “Single Dose Cell Viability (%) Dark” value in data set [4] amounted to 61.8 ± 6.2%. In addition, the IC50 in data set [4] (setting [9]) was 9.6 ± 4.2 µM; in data set [4] (setting [10]) it was above 200 µM.
With Re(CO)3(phen)(DAPTA) [DAPTA-phen (3)], the half-inhibitory concentration (IC50) is above 200 µM in data set [4] (HeLa, 365 nm for 1 hour, w/ oxyhemoglobin, read-out: IC50 Value (μM) HeLa (light)); above 200 µM in data set [4] (HeLa, dark, w/ oxyhemoglobin, read-out: IC50 Value (μM) HeLa (dark)); 5.9 ± 1.4 µM in data set [4] (setting [9]); above 200 µM in data set [4] (setting [10]); 5.9 ± 1.4 µM in data set [4] (setting [7]); above 200 µM in data set [4] (setting [8]). In addition, the half-maximal inhibitory concentration (IC50) in data set [5] (setting [11]) was 2.2 ± 1.1 µM; in data set [5] (setting [12]) it was above 200 µM; in data set [6] (setting [13]), 3.2 ± 0.7 µM; in data set [6] (setting [14]), above 200 µM.
In the case of Re(CO)3(phen)(PTA) [PTA-phen (1)], in data set [4] (365 nm for 1 hour), the “Single Dose Cell Viability (%) Light” value amounted to 99.6 ± 0.7%. Besides, in data set [4], the “Single Dose Cell Viability (%) Dark” value was found to be 99.4 ± 1.0%. The IC50 in data set [4] (setting [9]) is above 200 µM; in data set [4] (setting [10]) it was above 200 µM; in data set [4] (setting [7]) it was above 200 µM; in data set [4] (setting [8]) it was above 200 µM; in data set [5] (setting [11]), 53.1 ± 2.6 µM; in data set [5] (setting [12]), above 200 µM. The concentration for half-maximal inhibition (IC50) in data set [6] (setting [13]) and in data set [6] (setting [14]) was above 200 µM each time.
For the compound Re(CO)3(phen)(THP) [THP-phen (2)], in data set [4] (365 nm for 1 hour), the “Single Dose Cell Viability (%) Light” value is recorded as 2.5 ± 1.8%. Also, the “Single Dose Cell Viability (%) Dark” value in data set [4] is listed as 91.8 ± 8.7%. Moreover, the concentration for half-maximal inhibition (IC50) in data set [4] (setting [9]) is 26.4 ± 9.2 µM; in data set [4] (setting [10]) it was above 200 µM; in data set [4] (setting [7]), 26.4 ± 9.2 µM; in data set [4] (setting [8]), above 200 µM; in data set [5] (setting [11]), 4.6 ± 1.4 µM; in data set [5] (setting [12]) it was above 200 µM. For the same compound, the IC50 was 29.9 ± 7.7 µM in data set [6] (setting [13]) and above 200 µM in data set [6] (setting [14]).
As for “[Re(CO)3(N—N)(H2O)][OTf] [4,4′-dimethoxy bpy]”, in data set [1], the concentration for half-maximal inhibition (IC50) was 8.8 ± 2.4 µM.
Still for that read-out and setting: with “[Re(CO)3(N—N)(H2O)][OTf] [4,4′-dimethyl bpy]” the figure was 5.8 ± 3.4 µM; with “[Re(CO)3(N—N)(H2O)][OTf] [4,4′dimethylester bpy]”, 210 ± 30 µM; with “[Re(CO)3(N—N)(H2O)][OTf] [4,7-diphenyl phen]”, 15 ± 7 µM.
The same measure, in the same setting: the value for [Re(CO)3(N—N)(H2O)][OTf] [bpy] was 15 ± 5 µM; that for [Re(CO)3(N—N)(H2O)][OTf] [phen] was 9.7 ± 5.8 µM.

The values above are taken from US10973849B2, “Rhenium complexes and methods of use for treating cancer” (CORNELL UNIVERSITY, priority 2016, dated 2021).
